Source: paper PMC10415228 (Saudi Pharmaceutical Journal : SPJ, 2023)
Converted amounts (≈) assume the structure as drawn.

System: trypsin (serine protease)
Assay: serine protease
Assay type: biochemical

- IC50: 295.44 µg/mL (≈ 978 µM)
Compound: O=c1c(O)c(-c2ccc(O)c(O)c2)oc2cc(O)cc(O)c12 [Quercetin]
